Test results taken from US8008303B2, “Biphenyl derivatives and their use in treating hepatitis C” (AstraZeneca AB, priority 2005, dated 2011).
Like-named read-outs stand apart in the source and are kept apart here.

Experiments:
[1] = system: HCV replicon cells Huh 9B; type: cell-based
Method: (§1) HCV replicon cells Huh 9B (ReBlikon), containing the firefly luciferase-ubiquitin-neomycin phosphotransferase fusion protein and EMCV-IRES driven HCV polyprotein with cell culture adaptive mutations.
A flask of cells was trypsinised and a cell count carried out. […] Wells G12 and H12 were left empty in the clear plate as the blank. Plates were then incubated at 37° C. in a 5% CO2 environment for 24 h.
(§2) On the following day compound dilutions are made up in medium at twice their desired final concentration in a clear round bottomed plate. All dilutions have a final DMSO concentration of 1%.
Exception: no compound was added to wells A1 and A2 of either plate and 100 μl of 1% DMSO was added to these instead. Plates were then incubated at 37° C. with 5% CO2 for 72 h.
The clear plate was stained with 100 μl 0.5% methylene blue in 50% ethanol at room temperature for 1 h, followed by solvation of the absorbed methylene blue in 100 μl per well of 1% lauroylsarcosine. Absorbance of the plate was measured on a microplate spectrophotometer (Molecular Devices) and the absorbance for each concentration of compound expressed as a proportion of the relative DMSO control.

[2] = system: HCV replicon cells Huh 9B; experiment: HCV replicon assay (luciferase readout); type: cell-based
Method: as §1
Cells were cultured at 37° C. in a 5% CO2 environment and split twice a week on seeding at 2×10^6 cells/flask on day 1 and 1×10^6 3 days later. G418 at 0.5 mg/ml was added to the culture medium but not the assay medium.
The culture medium consisted of DMEM with […] glucose and glutamax (Gibco 61965-026) supplemented with 1× non-essential amino acids (Invitrogen 11140-035), penicillin (100 IU/ml)/streptomycin (100 μg/ml) (Invitrogen 15140-122), FCS (10%, 50 ml) and 1 mg/ml G418 (Invitrogen 10131-027) & 10% Australian foetal calf serum (Invitrogen 10099-141).
A flask of cells was trypsinised and a cell count carried out. Cells were diluted to 100,000 cells/ml and 100 μl of this used to seed one opaque white 96-well plate (for the replicon assay) and one flat-bottomed clear plate (for the tox assay) for every seven compounds to be tested for IC50. Wells G12 and H12 were left empty in the clear plate as the blank. Plates were then incubated at 37° C. in a 5% CO2 environment for 24 h.
as §2
Once the dilution plate had been made up, controls and compounds were transferred to the assay plate (containing the cells) at 100 μl /well in duplicate plates. Exception: no compound was added to wells A1 and A2 of either plate and 100 μl of 1% DMSO was added to these instead. Plates were then incubated at 37° C. with 5% CO2 for 72 h.
At the end of the incubation time, the cells in the white plate were harvested by washing 23.5 mM beetle luciferin (Promega E1603), 26 mM ATP (Sigma 0-2060) in […] Tris buffer pH 7.8 aliquoted and stored at −80 C was thawed and diluted 1:50 in luciferase assay buffer (20 mM Tricine (Sigma T-0377), 1.07 mM magnesium carbonate hydroxide (Sigma M-5671), 0.1 mM EDTA (Sigma E-5134), 2.67 mM MgSO4 (BDH 101514Y), 33.3 mM dithiothreitol (Sigma 150460) pH 7.8).
The M injector of the microplate luminometer (Lmax, Molecular Devices) was primed with 5×300 μl injections of the diluted substrate. After 5-60 min incubation in lysis buffer at room temperature, a plate was inserted into the luminometer and 100 μl luciferase assay reagent was added by the injector on the luminometer. The signal was measured using a 1 second delay followed by a 4 second measurement programme.

[3] = concentration reducing total cell area by 50% relative to DMSO controls, methylene blue, absorbance 620 nm, 72 h incubation
[4] = Hepatitis C virus, 72 h, concentration reducing replicon level (luciferase activity) by 50% vs untreated cell control, 72 h incubation

Structure (SMILES): Cc1ccc(C(=O)Nc2ccc(N3CCOCC3)cc2)cc1-c1ccc(C(=O)NCc2ccc(N3CCOCC3)cc2)cc1 [Example 20, 6-Methyl-biphenyl-3,4′-dicarboxylic acid 4′-(4-morpholin-4-yl-benzylamide) 3-[(4-morpholin-4-yl-phenyl)-amide]]
- TD50 [1]: ** (key: * < 50 μM; ** > 50 μM)
- IC50 [2]: > 5 µM

Structure (SMILES): CCCCNS(=O)(=O)c1cccc(NC(=O)c2ccc(-c3cc(C(=O)Nc4ccc(N5CCOCC5)cc4)ccc3C)cc2)c1 [Example 21, 6-Methyl-biphenyl-3,4′-dicarboxylic acid 4′-[(3-butylsulfamoyl-phenyl)-amide] 3-[(4-morpholin-4-yl-phenyl)-amide]]
- TD50 [1]: ** (key: * < 50 μM; ** > 50 μM)
- IC50 [2]: 1 to 5 µM

Structure (SMILES): Cc1ccc(C(=O)Nc2ccc(N3CCOCC3)cc2)cc1-c1ccc(C(=O)Nc2ccc(Cl)c(Cl)c2)cc1 [Example 22, 6-Methyl-biphenyl-3,4′-dicarboxylic acid 4′-[(3,4-dichloro-phenyl)-amide] 3-[(4-morpholin-4-yl-phenyl)-amide]]
- TD50 [1]: ** (key: * < 50 μM; ** > 50 μM)
- IC50 [2]: 1 to 5 µM

Structure (SMILES): Cc1ccc(C(=O)Nc2ccc(N3CCOCC3)cc2)cc1-c1ccc(C(=O)Nc2cccc(C(F)(F)F)c2)cc1 [Example 23, 6-Methyl-biphenyl-3,4′-dicarboxylic acid 3-[(4-morpholin-4-yl-phenyl)-amide] 4′-[(3-trifluoromethyl-phenyl)-amide]]
- TD50 [1]: * (key: * < 50 μM; ** > 50 μM)
- IC50 [2]: 1 to 5 µM

Structure (SMILES): Cc1ccc(C(=O)Nc2ccc(N3CCOCC3)cc2)cc1-c1ccc(C(=O)Nc2ccc(C#N)cc2)cc1 [Example 24, 6-Methyl-biphenyl-3,4′-dicarboxylic acid 4′-[(4-cyano-phenyl)-amide] 3-[(4-morpholin-4-yl-phenyl)-amide]]
- TD50 [1]: ** (key: * < 50 μM; ** > 50 μM)
- IC50 [2]: > 5 µM

Structure (SMILES): Cc1ccc(C(=O)Nc2ccc(N3CCOCC3)cc2)cc1-c1ccc(C(=O)Nc2cccc(OC(F)(F)F)c2)cc1 [Example 25, 6-Methyl-biphenyl-3,4′-dicarboxylic acid 3-[(4-morpholin-4-yl-phenyl)-amide] 4′-[(3-trifluoromethoxy-phenyl)-amide]]
- TD50 [1]: * (key: * < 50 μM; ** > 50 μM)
- IC50 [2]: 1 to 5 µM

Structure (SMILES): Cc1ccc(C(=O)Nc2ccc(N3CCOCC3)cc2)cc1-c1ccc(C(=O)Nc2cccc(-c3ccn(C)n3)c2)cc1 [Example 26, 6-Methyl-biphenyl-3,4′-dicarboxylic acid 4′-{[3-(1-methyl-1H-pyrazol-3-yl)-phenyl]-amide} 3-[(4-morpholin-4-yl-phenyl)-amide]]
- TD50 [1]: ** (key: * < 50 μM; ** > 50 μM)
- IC50 [2]: > 5 µM

Structure (SMILES): Cc1ccc(C(=O)Nc2ccc(N3CCOCC3)cc2)cc1-c1ccc(C(=O)Nc2cccc(F)c2)cc1 [Example 27, 6-Methyl-biphenyl-3,4′-dicarboxylic acid 4′-[(3-fluoro-phenyl)-amide] 3-[(4-morpholin-4-yl-phenyl)-amide]]
- TD50 [1]: ** (key: * < 50 μM; ** > 50 μM)
- IC50 [2]: 1 to 5 µM

Structure (SMILES): Cc1ccc(C(=O)Nc2ccc(N3CCOCC3)cc2)cc1-c1ccc(C(=O)Nc2ccc(-c3ccno3)cc2)cc1 [Example 28, 6-Methyl-biphenyl-3,4′-dicarboxylic acid 4′-[(4-isoxazol-5-yl-phenyl)-amide] 3-[(4-morpholin-4-yl-phenyl)-amide]]
- TD50 [1]: ** (key: * < 50 μM; ** > 50 μM)
- IC50 [2]: < 1 µM

Structure (SMILES): CNS(=O)(=O)c1ccc(NC(=O)c2ccc(-c3cc(C(=O)Nc4ccc(N5CCOCC5)cc4)ccc3C)cc2)cc1 [Example 29, 6-Methyl-biphenyl-3,4′-dicarboxylic acid 4′-[(4-methylsulfamoyl-phenyl)-amide] 3-[(4-morpholin-4-yl-phenyl)-amide]]
- TD50 [1]: ** (key: * < 50 μM; ** > 50 μM)
- IC50 [2]: < 1 µM

Structure (SMILES): Cc1ccc(C(=O)Nc2ccc(N3CCOCC3)cc2)cc1-c1ccc(C(=O)Nc2ccc(Br)c(Cl)c2)cc1 [Example 30, 6-Methyl-biphenyl-3,4′-dicarboxylic acid 4′-[(4-bromo-3-chloro-phenyl)-amide] 3-[(4-morpholin-4-yl-phenyl)-amide]]
- TD50 [1]: ** (key: * < 50 μM; ** > 50 μM)
- IC50 [2]: 1 to 5 µM

Structure (SMILES): Cc1ccc(C(=O)Nc2ccc(N3CCOCC3)cc2)cc1-c1ccc(C(=O)Nc2cccc(C(C)O)c2)cc1 (stereo not drawn) [Example 31, 6-Methyl-biphenyl-3,4′-dicarboxylic acid 4′-{[3-(1-hydroxy-ethyl)-phenyl]-amide} 3-[(4-morpholin-4-yl-phenyl)-amide]]
- TD50 [1]: ** (key: * < 50 μM; ** > 50 μM)
- IC50 [2]: 1 to 5 µM

Structure (SMILES): CCOC(=O)c1cccc(NC(=O)c2ccc(-c3cc(C(=O)Nc4ccc(N5CCOCC5)cc4)ccc3C)cc2)c1 [Example 32, 3-{[2′-Methyl-5′-(4-morpholin-4-yl-phenylcarbamoyl) -biphenyl-4-carbonyl]-amino}-benzoic acid ethyl ester]
- TD50 [1, 3]: ** (** > 50 μM)
- IC50 [2, 4]: < 1 µM

Structure (SMILES): COc1cccc(NC(=O)c2ccc(-c3cc(C(=O)Nc4ccc(N5CCOCC5)cc4)ccc3C)cc2)c1 [Example 33, 6-Methyl-biphenyl-3,4′-dicarboxylic acid 4′-[(3-methoxy-phenyl)-amide] 3-[(4-morpholin-4-yl-phenyl)-amide]]
- TD50 [1]: ** (key: * < 50 μM; ** > 50 μM)
- IC50 [2]: < 1 µM

Structure (SMILES): COc1ccc(NC(=O)c2ccc(-c3cc(C(=O)Nc4ccc(N5CCOCC5)cc4)ccc3C)cc2)cc1OC [Example 34, 6-Methyl-biphenyl-3,4′-dicarboxylic acid 4′-[(3,4-dimethoxy-phenyl)-amide] 3-[(4-morpholin-4-yl-phenyl)-amide]]
- TD50 [1]: ** (key: * < 50 μM; ** > 50 μM)
- IC50 [2]: 1 to 5 µM

Structure (SMILES): Cc1ccc(C(=O)Nc2ccc(N3CCOCC3)cc2)cc1-c1ccc(C(=O)Nc2ccccc2CN(C)C2CCCCC2)cc1 [Example 35, 6-Methyl-biphenyl-3,4′-dicarboxylic acid 4′-({2-[(cyclohexyl-methyl-amino)-methyl]-phenyl}-amide) 3-[(4-morpholin-4-yl-phenyl)-amide]]
- TD50 [1]: ** (key: * < 50 μM; ** > 50 μM)
- IC50 [2]: > 5 µM

Structure (SMILES): Cc1ccc(C(=O)Nc2ccc(N3CCOCC3)cc2)cc1-c1ccc(C(=O)Nc2cccnc2)cc1 [Example 36, 6-Methyl-biphenyl-3,4′-dicarboxylic acid 3-[(4-morpholin-4-yl-phenyl)-amide] 4′-pyridin-3-ylamide]
- TD50 [1]: * (key: * < 50 μM; ** > 50 μM)
- IC50 [2]: 1 to 5 µM

Structure (SMILES): Cc1ccc(C(=O)Nc2ccc(N3CCOCC3)cc2)cc1-c1ccc(C(=O)N2CCN(c3cccc(Cl)c3Cl)CC2)cc1 [Example 37, 4′-[4-(2,3-Dichloro-phenyl)-piperazine-1-carbonyl]-6-methyl-biphenyl-3-carboxylic acid (4-morpholin-4-yl-phenyl)-amide]
- TD50 [1, 3]: ** (** > 50 μM)
- IC50 [2, 4]: > 5 µM

Structure (SMILES): Cc1ccc(C(=O)Nc2ccc(N3CCOCC3)cc2)cc1-c1ccc(C(=O)Nc2ccc3[nH]c(C(F)(F)F)nc3c2)cc1 [Example 38, 6-Methyl-biphenyl-3,4′-dicarboxylic acid 3-[(4-morpholin-4-yl-phenyl)-amide] 4′-[(2-trifluoromethyl-1H-benzoimidazol-5-yl)-amide]]
- TD50 [1]: ** (key: * < 50 μM; ** > 50 μM)
- IC50 [2]: 1 to 5 µM

Structure (SMILES): Cc1ccc(C(=O)Nc2ccc(N3CCOCC3)cc2)cc1-c1ccc(C(=O)Nc2ccc(CC#N)cc2)cc1 [Example 39, 6-Methyl-biphenyl-3,4′-dicarboxylic acid 4′-[(4-cyanomethyl-phenyl)-amide] 3-[(4-morpholin-4-yl-phenyl)-amide]]
- TD50 [1]: * (key: * < 50 μM; ** > 50 μM)
- IC50 [2]: 1 to 5 µM

Structure (SMILES): Cc1ccc(C(=O)Nc2ccc(N3CCOCC3)cc2)cc1-c1ccc(C(=O)NCc2ccsc2)cc1 [Example 40, 6-Methyl-biphenyl-3,4′-dicarboxylic acid 3-[(4-morpholin-4-yl-phenyl)-amide] 4′-[(thiophen-3-ylmethyl)-amide]]
- TD50 [1]: ** (key: * < 50 μM; ** > 50 μM)
- IC50 [2]: 1 to 5 µM
